Assay results: patent US9206241B2, “Modified prokaryotic ubiquitin-like protein and methods of use thereof” (priority 2012, dated 2015)
“Also recorded” adds a separate entry of the source.

What was measured:
lysates of Mtb = assay: Hydrolysis of substrate in Mtb lysates; format: biochemical, Mycobacterium tuberculosis
DopE10A = DopE10A (Mycobacterium tuberculosis, UniProt P9WNU9, E10A)

MAQEQTKRGGGGGDDDDIAGSTAAGQERREKLTEETDDLLDEIDDV LEENAEDFVRAYVQKGG-Glu(AMC) [1a]
hydrolysis of substrate in lysate (lysates of Mtb): hydrolysis; also recorded: could not hydrolyze
activity of DopE10A on the substrate (DopE10A): no activity
